# How the values were obtained:
# [1] = biological target: T1, Kinesin-like protein KIF11 (Homo sapiens, UniProt P52732); test: Inhibition of kinesin ATPase activity by enzyme-linked inorganic phosphate detection assay without preincubation
# T1 sequence (P52732 whole entry): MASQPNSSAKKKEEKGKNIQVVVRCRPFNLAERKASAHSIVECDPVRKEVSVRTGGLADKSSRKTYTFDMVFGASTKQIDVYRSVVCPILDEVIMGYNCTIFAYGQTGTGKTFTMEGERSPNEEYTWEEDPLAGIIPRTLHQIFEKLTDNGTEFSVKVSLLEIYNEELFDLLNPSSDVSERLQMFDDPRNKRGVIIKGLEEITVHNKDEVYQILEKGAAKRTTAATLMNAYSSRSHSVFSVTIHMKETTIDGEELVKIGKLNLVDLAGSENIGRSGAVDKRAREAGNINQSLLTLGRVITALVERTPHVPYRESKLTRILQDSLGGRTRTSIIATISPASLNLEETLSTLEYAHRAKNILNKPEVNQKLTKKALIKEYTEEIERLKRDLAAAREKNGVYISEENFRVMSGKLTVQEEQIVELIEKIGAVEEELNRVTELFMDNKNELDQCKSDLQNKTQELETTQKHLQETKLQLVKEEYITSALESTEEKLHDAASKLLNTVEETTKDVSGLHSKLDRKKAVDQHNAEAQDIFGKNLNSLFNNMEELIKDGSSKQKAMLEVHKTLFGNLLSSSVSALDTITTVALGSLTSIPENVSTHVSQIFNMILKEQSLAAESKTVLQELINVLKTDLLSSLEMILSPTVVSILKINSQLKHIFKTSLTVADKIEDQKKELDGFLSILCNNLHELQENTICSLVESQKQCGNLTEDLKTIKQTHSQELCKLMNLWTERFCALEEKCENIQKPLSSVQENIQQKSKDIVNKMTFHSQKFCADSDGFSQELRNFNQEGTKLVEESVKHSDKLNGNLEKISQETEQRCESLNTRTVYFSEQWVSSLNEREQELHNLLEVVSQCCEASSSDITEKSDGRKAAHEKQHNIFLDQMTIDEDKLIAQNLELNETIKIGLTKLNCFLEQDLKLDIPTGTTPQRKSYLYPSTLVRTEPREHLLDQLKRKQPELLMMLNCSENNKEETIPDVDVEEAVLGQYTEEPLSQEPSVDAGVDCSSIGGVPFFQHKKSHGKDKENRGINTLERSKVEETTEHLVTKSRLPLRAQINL
# [2] = biological target: T1, Kinesin-like protein KIF11; test: Inhibition of kinesin ATPase activity by enzyme-linked inorganic phosphate detection assay with 5 mins pre-incubation
smiles,measurement,setting,value
CC1(C)CCC[C@]2(C)O[C@H]3CC[C@@]4(C)[C@@H](CC[C@]5(C)[C@@H]4CC[C@]4(C)c6c(OS(=O)(=O)O)ccc(OS(=O)(=O)O)c6C[C@@H]54)[C@]3(C)CC[C@@H]12 [ADOCIASULFATE-2],IC50,[1],13.9 µM
same,IC50,[2],7.3 µM

# Reference: ChEMBL document CHEMBL1145343, “Inhibition of kinesin motor proteins by adociasulfate-2” (J Med Chem, 2006)
